Assay results: PubChem BioAssay (NCI)
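1) Cells in 96-well plates. 2) Compound, 48 h, 5 concentrations. 3) Linear interpolation between surrounding doses. 4) Unreached endpoint = highest concentration. At the TGI there is no net growth.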

Key:
Assay in all cases: NCI-60 cell line screen, 48 h
UACC-257 melanoma = test system: UACC-257 melanoma
HCT-116 colon = test system: HCT-116 colon
BT-549 breast = test system: BT-549 breast
CAKI-1 renal = test system: CAKI-1 renal
MDA-MB-435 = test system: MDA-MB-435
T-47D breast = test system: T-47D breast
OVCAR-4 ovarian = test system: OVCAR-4 ovarian
HT29 colon = test system: HT29 colon
HL-60(TB) leukemia = test system: HL-60(TB) leukemia
NCI/ADR-RES ovarian = test system: NCI/ADR-RES ovarian
SF-539 CNS = test system: SF-539 CNS
SK-MEL-28 melanoma = test system: SK-MEL-28 melanoma
SR leukemia = test system: SR leukemia
MDA-MB-231 breast = test system: MDA-MB-231 breast
U251 CNS = test system: U251 CNS
M14 melanoma = test system: M14 melanoma
HOP-62 NSCLC = test system: HOP-62 NSCLC
LOX IMVI melanoma = test system: LOX IMVI melanoma
EKVX NSCLC = test system: EKVX NSCLC
HS 578T breast = test system: HS 578T breast
PC-3 prostate = test system: PC-3 prostate
CCRF-CEM leukemia = test system: CCRF-CEM leukemia
MALME-3M melanoma = test system: MALME-3M melanoma
SW-620 colon = test system: SW-620 colon
NCI-H226 lung = test system: NCI-H226 lung
MCF7 breast = test system: MCF7 breast
HCT-15 colon = test system: HCT-15 colon
A549 NSCLC = test system: A549 NSCLC
OVCAR-3 ovarian = test system: OVCAR-3 ovarian
COLO 205 colon = test system: COLO 205 colon
HOP-92 NSCLC = test system: HOP-92 NSCLC
SNB-19 CNS = test system: SNB-19 CNS
UO-31 renal = test system: UO-31 renal
TK-10 renal = test system: TK-10 renal
SF-295 CNS = test system: SF-295 CNS
786-0 renal = test system: 786-0 renal
UACC-62 melanoma = test system: UACC-62 melanoma
SNB-75 CNS = test system: SNB-75 CNS
HCC-2998 colon = test system: HCC-2998 colon
ACHN renal = test system: ACHN renal
NCI-H522 lung = test system: NCI-H522 lung
RXF 393 renal = test system: RXF 393 renal
MOLT-4 leukemia = test system: MOLT-4 leukemia
MDA-N = test system: MDA-N
NCI-H460 lung = test system: NCI-H460 lung
SF-268 CNS = test system: SF-268 CNS
OVCAR-5 ovarian = test system: OVCAR-5 ovarian
K-562 leukemia = test system: K-562 leukemia
RPMI-8226 leukemia = test system: RPMI-8226 leukemia
SK-OV-3 ovarian = test system: SK-OV-3 ovarian
KM12 colon = test system: KM12 colon
NCI-H23 lung = test system: NCI-H23 lung
SK-MEL-5 melanoma = test system: SK-MEL-5 melanoma
SK-MEL-2 melanoma = test system: SK-MEL-2 melanoma
OVCAR-8 ovarian = test system: OVCAR-8 ovarian
SN12C renal = test system: SN12C renal
DU-145 prostate = test system: DU-145 prostate
IGROV1 ovarian = test system: IGROV1 ovarian
A498 renal = test system: A498 renal

Measured: TGI

CC(C)C[C@H](NC(=O)[C@H](Cc1ccc(F)cc1)NC(=O)c1ccccn1)B(O)O
1.12 µM: COLO 205 colon
< 0.01 µM: UACC-257 melanoma | HCT-116 colon | BT-549 breast | MDA-MB-435 | T-47D breast | HT29 colon | SF-539 CNS | SK-MEL-28 melanoma | SR leukemia | MDA-MB-231 breast | HOP-62 NSCLC | LOX IMVI melanoma | PC-3 prostate | MALME-3M melanoma | SW-620 colon | NCI-H226 lung | HCT-15 colon | OVCAR-3 ovarian | HOP-92 NSCLC | UO-31 renal | SF-295 CNS | 786-0 renal | UACC-62 melanoma | SNB-75 CNS | HCC-2998 colon | NCI-H522 lung | RXF 393 renal | MDA-N | SF-268 CNS | OVCAR-5 ovarian | KM12 colon | NCI-H23 lung | SK-MEL-5 melanoma | SK-MEL-2 melanoma | OVCAR-8 ovarian | SN12C renal
0.0933 µM: EKVX NSCLC
< 0.0124 µM: CAKI-1 renal
0.166 µM: MCF7 breast
< 0.0107 µM: M14 melanoma
0.0193 µM: TK-10 renal
1.07 µM: SK-OV-3 ovarian
0.0212 µM: NCI/ADR-RES ovarian
0.0465 µM: ACHN renal
< 0.0326 µM: OVCAR-4 ovarian
> 33.4 µM: SNB-19 CNS
0.106 µM: U251 CNS
> 100 µM: HL-60(TB) leukemia | CCRF-CEM leukemia | MOLT-4 leukemia | K-562 leukemia | RPMI-8226 leukemia
0.0504 µM: NCI-H460 lung
0.165 µM: A549 NSCLC
< 0.0121 µM: HS 578T breast

CN(C)c1ccc(C2CC(c3ccc4ccccc4c3O)=NN2c2ccc([N+](=O)[O-])cc2[N+](=O)[O-])cc1 (stereo not drawn)
77.7 µM: NCI-H23 lung
34.6 µM: MDA-MB-435
> 100 µM: UACC-257 melanoma | HCT-116 colon | BT-549 breast | CAKI-1 renal | DU-145 prostate | T-47D breast | OVCAR-4 ovarian | HT29 colon | IGROV1 ovarian | NCI/ADR-RES ovarian | SF-539 CNS | SK-MEL-28 melanoma | MDA-MB-231 breast | U251 CNS | M14 melanoma | HOP-62 NSCLC | HS 578T breast | PC-3 prostate | MALME-3M melanoma | SW-620 colon | NCI-H226 lung | MCF7 breast | HCT-15 colon | A549 NSCLC | OVCAR-3 ovarian | COLO 205 colon | HOP-92 NSCLC | A498 renal | UO-31 renal | TK-10 renal | SF-295 CNS | 786-0 renal | SNB-75 CNS | HCC-2998 colon | ACHN renal | NCI-H522 lung | RXF 393 renal | NCI-H460 lung | SF-268 CNS | OVCAR-5 ovarian | SK-OV-3 ovarian | KM12 colon | SK-MEL-2 melanoma | OVCAR-8 ovarian | SN12C renal
51.3 µM: SR leukemia
37.2 µM: UACC-62 melanoma
94.3 µM: CCRF-CEM leukemia
30.5 µM: MDA-N
94.5 µM: MOLT-4 leukemia
